Numbers after ± are expanded uncertainties.
Experiment: excess molar enthalpy (molar enthalpy of mixing); xn = mol fraction of the nth substance listed
Conditions: 100 kPa, Liquid, isothermal titration calorimetry

CCCCCCOCC [1-ethoxyhexane] + CC#N
Conditions	excess molar enthalpy [kJ/mol]
298.15 K, x2 = 0.0307	0.117 ± 0.0022
298.15 K, x2 = 0.0596	0.254 ± 0.0037
298.15 K, x2 = 0.0868	0.371 ± 0.0051
298.15 K, x2 = 0.1125	0.469 ± 0.0062
298.15 K, x2 = 0.1368	0.554 ± 0.0073
298.15 K, x2 = 0.1816	0.694 ± 0.0089
298.15 K, x2 = 0.222	0.802 ± 0.01
298.15 K, x2 = 0.2586	0.887 ± 0.011
298.15 K, x2 = 0.2919	0.955 ± 0.012
298.15 K, x2 = 0.3223	1.01 ± 0.013
298.15 K, x2 = 0.3759	1.09 ± 0.014
298.15 K, x2 = 0.4217	1.13 ± 0.014
298.15 K, x2 = 0.4612	1.16 ± 0.015
298.15 K, x2 = 0.5038	1.18 ± 0.015
298.15 K, x2 = 0.5401	1.18 ± 0.015
298.15 K, x2 = 0.5715	1.18 ± 0.015
298.15 K, x2 = 0.5988	1.17 ± 0.015
298.15 K, x2 = 0.6274	1.15 ± 0.015
298.15 K, x2 = 0.6521	1.13 ± 0.014
298.15 K, x2 = 0.6738	1.11 ± 0.014
298.15 K, x2 = 0.6959	1.08 ± 0.014
298.15 K, x2 = 0.7006	1.07 ± 0.013
298.15 K, x2 = 0.7152	1.05 ± 0.013
298.15 K, x2 = 0.7222	1.03 ± 0.013
298.15 K, x2 = 0.7322	1.02 ± 0.013
298.15 K, x2 = 0.7452	0.994 ± 0.013
298.15 K, x2 = 0.7473	0.998 ± 0.013
298.15 K, x2 = 0.7608	0.973 ± 0.012
298.15 K, x2 = 0.7698	0.946 ± 0.012
298.15 K, x2 = 0.796	0.887 ± 0.011
298.15 K, x2 = 0.8241	0.813 ± 0.01
298.15 K, x2 = 0.8419	0.76 ± 0.0098
298.15 K, x2 = 0.8604	0.7 ± 0.009
298.15 K, x2 = 0.8799	0.63 ± 0.0082
298.15 K, x2 = 0.9002	0.548 ± 0.0072
298.15 K, x2 = 0.9215	0.453 ± 0.0061
298.15 K, x2 = 0.9362	0.381 ± 0.0052
298.15 K, x2 = 0.9514	0.3 ± 0.0043
298.15 K, x2 = 0.967	0.211 ± 0.0033
298.15 K, x2 = 0.9832	0.111 ± 0.0022
308.15 K, x2 = 0.0303	0.139 ± 0.0024
308.15 K, x2 = 0.0588	0.281 ± 0.004
308.15 K, x2 = 0.0857	0.401 ± 0.0054
308.15 K, x2 = 0.1111	0.504 ± 0.0067
308.15 K, x2 = 0.1352	0.594 ± 0.0077
308.15 K, x2 = 0.1795	0.741 ± 0.0095
308.15 K, x2 = 0.2196	0.855 ± 0.011
308.15 K, x2 = 0.2559	0.944 ± 0.012
308.15 K, x2 = 0.2889	1.01 ± 0.013
308.15 K, x2 = 0.3192	1.07 ± 0.014
308.15 K, x2 = 0.3726	1.15 ± 0.015
308.15 K, x2 = 0.4182	1.2 ± 0.015
308.15 K, x2 = 0.4577	1.23 ± 0.015
308.15 K, x2 = 0.5002	1.25 ± 0.016
308.15 K, x2 = 0.5366	1.25 ± 0.016
308.15 K, x2 = 0.568	1.24 ± 0.016
308.15 K, x2 = 0.5954	1.23 ± 0.016
308.15 K, x2 = 0.6241	1.21 ± 0.015
308.15 K, x2 = 0.6489	1.19 ± 0.015
308.15 K, x2 = 0.6707	1.17 ± 0.015
308.15 K, x2 = 0.6929	1.14 ± 0.014
308.15 K, x2 = 0.7087	1.11 ± 0.014
308.15 K, x2 = 0.7123	1.11 ± 0.014
308.15 K, x2 = 0.7294	1.08 ± 0.014
308.15 K, x2 = 0.73	1.07 ± 0.014
308.15 K, x2 = 0.7446	1.05 ± 0.013
308.15 K, x2 = 0.7526	1.03 ± 0.013
308.15 K, x2 = 0.7582	1.02 ± 0.013
308.15 K, x2 = 0.7767	0.974 ± 0.012
308.15 K, x2 = 0.8023	0.909 ± 0.012
308.15 K, x2 = 0.8297	0.83 ± 0.011
308.15 K, x2 = 0.847	0.774 ± 0.0099
308.15 K, x2 = 0.8651	0.709 ± 0.0092
308.15 K, x2 = 0.884	0.635 ± 0.0083
308.15 K, x2 = 0.9037	0.551 ± 0.0072
308.15 K, x2 = 0.9243	0.453 ± 0.0061
308.15 K, x2 = 0.9385	0.38 ± 0.0052
308.15 K, x2 = 0.9531	0.3 ± 0.0043
308.15 K, x2 = 0.9683	0.21 ± 0.0033
308.15 K, x2 = 0.9839	0.11 ± 0.0022
